One data set deals with T1, FXR (Homo sapiens, UniProt Q96RI1).
T1 sequence (Q96RI1 1-486): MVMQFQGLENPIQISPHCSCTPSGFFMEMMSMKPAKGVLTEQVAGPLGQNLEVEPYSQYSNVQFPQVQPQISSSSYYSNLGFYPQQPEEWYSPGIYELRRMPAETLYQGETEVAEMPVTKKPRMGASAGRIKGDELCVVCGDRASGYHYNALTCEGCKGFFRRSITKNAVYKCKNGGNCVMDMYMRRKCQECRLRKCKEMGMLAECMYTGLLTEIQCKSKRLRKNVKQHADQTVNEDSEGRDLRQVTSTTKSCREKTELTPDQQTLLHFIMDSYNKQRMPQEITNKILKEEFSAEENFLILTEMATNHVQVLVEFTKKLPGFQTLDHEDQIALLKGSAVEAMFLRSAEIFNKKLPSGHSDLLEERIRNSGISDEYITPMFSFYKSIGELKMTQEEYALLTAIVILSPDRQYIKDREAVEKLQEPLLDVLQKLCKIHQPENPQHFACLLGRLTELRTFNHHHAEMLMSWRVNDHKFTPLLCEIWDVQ
The experiment in a line: Potency for FXR (INT-767 versus INT-747). The following applies: greater than INT-747.

For data set [1], the system named is bile salt export pump (Bsep). As to the kind of experiment: Hepatic FXR target gene expression, Bsep, in Mdr2^−/− mice. Type of data set: in vivo. The source says:
Cholesterol 7 alpha-hydroxylase (cyp7a1) is the rate limiting enzyme in the classical biosynthetic pathways which convert cholesterol into bile acids. […] The bile salt export pump (Bsep) is a membrane protein that uses energy of ATP hydrolysis to actively transport bile acid salts.

For a further data set, the system named is FXR^−/− mice. The experiment in a line: Hepatocarcinogenesis in FXR^−/− mice (tumors, LW/BW, ALT/AST, serum bile acids). The following applies: for liver tumors found: diet 10 mg/kg for 15 months.
Data set [2] has as its system fibroblast growth factor 15 (Fgf15). As to the kind of experiment: Ileal FXR target gene expression, Fgf15, in Mdr2^−/− mice. Conditions: Mdr2^−/− groups only (not FXR^−/−). The data set is classed as in vivo. The source says: (§1) As expected, both INT-747 and INT-767 stimulated fibroblast growth factor 15 (Fgf15) and small heterodimer partner (Shp) gene expression in Mdr2^−/− groups only (FIGS. 7A and 7B).

The next data set relates to Mdr2^−/− mice. The experiment in a line: Hepatocarcinogenesis in Mdr2^−/− mice (tumors, LW/BW, ALT/AST, serum bile acids).
Data set [3] deals with small heterodimer partner (Shp). As to the kind of experiment: Ileal FXR target gene expression, Shp, in Mdr2^−/− mice. Type of data set: in vivo. The following applies: Mdr2^−/− groups only (not FXR^−/−).
Text: as §1

Data set [4] has as its system Cholesterol 7 alpha-hydroxylase (cyp7a1). As to the kind of experiment: Hepatic FXR target gene expression, Cyp7a1, in Mdr2^−/− mice. The data set is classed as in vivo. Conditions: Mdr2^−/− mice only (not FXR^−/−). The source says:
Cholesterol 7 alpha-hydroxylase (cyp7a1) is the rate limiting enzyme in the classical biosynthetic pathways which convert cholesterol into bile acids. Both INT-767 and INT-747 inhibited Cyp7a1 gene expression in Mdr2^−/− mice only (FIG. 8). The bile salt export pump (Bsep) is a membrane protein that uses energy of ATP hydrolysis to actively transport bile acid salts.

Method for FXR^−/− mice: The effects of INT-747, INT-767, and control diet in Mdr2^−/− and FXR^−/− mice on the development of hepatocellular carcinoma were evaluated.
Mdr2^−/− and FXR^−/− mice were randomly divided into three experimental groups.
The mice were fed a specific rodent diet or a diet supplemented with INT-747, INT-767, or control diet for 15 months. All mice were housed under pathogen-free conditions in a temperature-controlled room (23° C.) on a 12-hour light/dark cycle and drank water ad libitum. […] After 16 months, the mice were sacrificed and serum, liver and intestine were collected. The total number of hepatic tumors was counted and the diameter of each tumor was measured.
• Mice (n=4) were fed control diet for 15 months. Group 2: INT-747 • Mice (n=8) were fed control diet supplemented with OCA at a dose of 10 mg/kg for 15 months. Group 3: INT-767 • Mice (n=15) were fed control diet supplemented with INT-767 at a dose of 10 mg/kg for 15 months.

Regarding `CC[C@H]1[C@@H](O)[C@@H]2[C@H](CC[C@]3(C)[C@@H]([C@H](C)CCOS(=O)(=O)[O-])CC[C@@H]23)[C@@]2(C)CC[C@@H](O)C[C@@H]12.[Na+]` [INT-767, 6α-ethyl-3α,7α,23-trihydroxy-24-nor-5β-cholan-23-sulphate sodium], the “potency for FXR relative to INT-747” value at FXR is “about 10 fold”. Also, the “hepatic Bsep induction” value in data set [1] was “induced hepatic Bsep activation”. In addition, in the data set on FXR^−/− mice, the ALT levels entry is on record as “no difference”, the AST levels entry is “no difference”, the “LW/BW ratio (liver weight/body weight)” value is reported as “No difference” and the “serum bile acid levels” value was “no reduction occurred”. Besides, the liver tumors found entry with FXR^−/− mice is “several large liver tumors”. Further, the “ileal Fgf15 gene expression” value in data set [2] was “stimulated”. Also, the “serum bile acid levels” value with Mdr2^−/− mice is “significantly reduced”. Further, the “LW/BW ratio (liver weight/body weight)” value with Mdr2^−/− mice (compared to control and INT-747 treated mice) is given as “significant reduction”. In addition, in the data set on Mdr2^−/− mice (diet 10 mg/kg for 15 months), the “liver tumors found (appearance/size)” value is reported as “minute tumors”. In the data set on Mdr2^−/− mice (diet 10 mg/kg for 15 months, compared to control), the “hepatocellular carcinoma development (number of hepatic tumors)” value is listed as “clearly prevented hepatocellular carcinoma development”. Besides, in the data set with Mdr2^−/− mice (vs control), the ALT levels result is “significantly reduced” and the AST levels result is “significantly reduced”. Further, the “ileal Shp gene expression” value in data set [3] is on record as “stimulated”.
With `CC[C@H]1[C@@H](O)C2C3CC[C@H]([C@H](C)CCOS(=O)(=O)[O-])[C@@]3(C)CCC2[C@@]2(C)CC[C@@H](O)C[C@@H]12.[Na+]` (stereo partly drawn) [INT-767, 6α-ethyl-3α,7α,23-trihydroxy-24-nor-5β-cholan-23-sulphate sodium], the “hepatic Cyp7a1 gene expression” value in data set [4] is given as “inhibited”.
For the compound `CC[C@H]1[C@@H](O)[C@@H]2[C@H](CC[C@]3(C)[C@@H]([C@H](C)CCC(=O)O)CC[C@@H]23)[C@@]2(C)CC[C@@H](O)C[C@@H]12` [INT-747, 6α-ethyl-3α,7α-dihydroxy-5β-cholan-24-oic acid], the “hepatic Cyp7a1 gene expression” value in data set [4] is on record as “inhibited”. Further, the “hepatic Bsep induction” value in data set [1] was “did not promote hepatic Bsep induction”. Also, the liver tumors found entry in the data set on FXR^−/− mice is given as “several large liver tumors”. Moreover, in data set [2], the “ileal Fgf15 gene expression” value is “stimulated”. In the data set with Mdr2^−/− mice (diet 10 mg/kg for 15 months), the “liver tumors found (appearance/size)” value was “clearly identifiable liver tumors” and the “tumors with a diameter larger than 5 mm” value is approximately 80%. Moreover, the “ileal Shp gene expression” value in data set [3] is listed as “stimulated”.

For the origin of these results see patent US10369160B2, “Methods of treating cancer” (Intercept Pharmaceuticals, Inc., priority 2016, dated 2019).
